Data: patent US9149475B2, “Protein kinase C inhibitors and uses thereof” (Rigel Pharmaceuticals, Inc., priority 2009, dated 2015)

Tested on: Human primary T cells
Assay: IL-2 ELISA, human primary T cell, anti-CD3+CD28+ (whole cell assay)
Format: cell-based
Details: Homo sapiens, T-cell, 24 h, human primary T cells stimulated with anti-CD3 + anti-CD28, 24 hours
Method: (§1) Human primary T cells were prepared as follows. Whole blood was obtained from a healthy volunteer, mixed 1:1 with PBS, layered on to Ficoll Hypaque (Amersham Pharmacia Biotech, Piscataway, N.J., Catalog #17-1440-03) in 2:1 blood/PBS:ficoll ratio and centrifuged for 30 minutes at 4° C. at 1750 rpm. The cells at the serum:ficoll interface were recovered and washed twice with 5 volumes of PBS. These freshly isolated human peripheral blood mononuclear cells were cultured in Yssel's medium containing 40 U/mL IL2 in a flask pre-coated with 1 μg/mL αCD3 and 5 μg/mL αCD28 (Anti-Human CD3, BD Pharmingen Catalog #555336, Anti-Human CD28, Beckman Coulter Catalog #IM1376). The cells were stimulated for 3-4 days, then transferred to a fresh flask and maintained in RPMI (RPMI-1640 with L-Glutamine; Mediatech, Inc., Herndon Va., cat. #10-040-CM) with 10% FBS and 40 U/mL IL-2. The primary T-cells were then washed twice with PBS to remove the IL-2.
Human primary T cells (100,000 cells per well) were pre-incubated with or without test compound in Yssel's medium for 1 hr at 37° C. Cells were then stimulated by transferring them to round-bottom 96-well plates pre-coated with 1 μg/ml μCD3 and 5 μg/ml μCD28. For counter assay, cells were instead stimulated by adding 8× stock solutions of PMA and ionomycin in Yssels (for final concentrations of 0.5 ng/ml PMA and 0.1 μM ionomycin, both from Calbiochem). Cells were incubated at 37° C. for 24 hours before 100 μL supernatants were harvested for quantification of IL-2 by ELISA using Human IL-2 Duoset ELISA Kit from R and D Systems, Cat. #DY202E.
as §1, with “Human primary T cell isolation and culture: Human primary” for “Human primary”, “for 30 min at 4°” for “for 30 minutes at 4°”, “at the serum: ficoll interface were” for “at the serum:ficoll interface were”
Primary T cell stimulation and IL2 ELISA: Human primary T cells (100,000 cells per well) were pre-incubated with or without test compound in Yssel's medium for 1 hr at 37° C. Cells were then stimulated by transferring them to round-bottom 96-well plates pre-coated with 1 μg/ml αCD3 and 5 μg/ml αCD28. For counter assay, cells were instead stimulated by adding 8× stock solutions of PMA and ionomycin in Yssels (for final concentrations of 0.5 ng/ml PMA and 0.1 μM ionomycin, both from Calbiochem). Cells were incubated at 37° C. for 24 hours before 100 μL supernatants were harvested for quantification of IL-2 by ELISA using Human IL-2 Duoset ELISA Kit from R and D Systems, Cat. #DY202E.

Row | Structure (SMILES) | IC50 [µM]
1 | Cc1ccn(-c2cccc(Nc3ncc(F)c(NC4CC(C)(C)N(C)C(C)(C)C4)n3)c2)n1 [Compound I-1, 5-fluoro-N2-(3-(3-methyl-1H-pyrazol-1-yl)phenyl)-N4-(1,2,2,6,6-pentamethylpiperidin-4-yl)pyrimidine-2,4-diamine] | > 1
2 | CN1C(C)(C)CC(Nc2nc(Nc3cccc(-n4ccc(C(F)(F)F)n4)c3)ncc2F)CC1(C)C [Compound I-2, 5-fluoro-N2-(3-(3-(trifluoromethyl)-1H-pyrazol-1-yl)phenyl)-N4-(1,2,2,6,6-pentamethylpiperidin-4-yl)pyrimidine-2,4-diamine] | > 1
3 | CC1(C)CC(Nc2nc(Nc3cccc(-n4ccc(C(F)(F)F)n4)c3)ncc2F)CC(C)(C)N1 [Compound I-3, 5-fluoro-N2-(3-(3-(trifluoromethyl)-1H-pyrazol-1-yl)phenyl)-N4-(2,2,6,6-tetramethylpiperidin-4-yl)pyrimidine-2,4-diamine] | > 1
4 | Cc1ccc(C)n1-c1cc(Nc2ncc(F)c(NC3CC(C)(C)N(C)C(C)(C)C3)n2)ccc1OC(F)F [Compound I-4, N2-(4-(difluoromethoxy)-3-(2,5-dimethyl-1H-pyrrol-1-yl)phenyl)-5-fluoro-N4-(1,2,2,6,6-pentamethylpiperidin-4-yl)pyrimidine-2,4-diamine] | 0.25 to 0.5
5 | Cc1ccc(C)n1-c1cc(Nc2ncc(F)c(NC3CC(C)(C)NC(C)(C)C3)n2)ccc1OC(F)F [Compound I-5, N2-(4-(difluoromethoxy)-3-(2,5-dimethyl-1H-pyrrol-1-yl)phenyl)-5-fluoro-N4-(2,2,6,6-tetramethylpiperidin-4-yl)pyrimidine-2,4-diamine] | 0.5 to 1
6 | CN1C(C)(C)CC(Nc2nc(Nc3cc(F)cc(OCCn4ccnn4)c3)ncc2F)CC1(C)C [Compound I-6, N2-(3-(2-(1H-1,2,3-triazol-1-yl)ethoxy)-5-fluorophenyl)-5-fluoro-N4-(1,2,2,6,6-pentamethylpiperidin-4-yl)pyrimidine-2,4-diamine] | 0.5 to 1
7 | Cc1ccn(-c2cccc(Nc3ncc(F)c(NC4CC(C)(C)NC(C)(C)C4)n3)c2)n1 [Compound I-7, 5-fluoro-N2-(3-(3-methyl-1H-pyrazol-1-yl)phenyl)-N4-(2,2,6,6-tetramethylpiperidin-4-yl)pyrimidine-2,4-diamine] | > 1
8 | CC1(C)CC(Nc2nc(Nc3cc(F)cc(OCCn4ccnn4)c3)ncc2F)CC(C)(C)N1 [Compound I-8, N2-(3-(2-(1H-1,2,3-triazol-1-yl)ethoxy)-5-fluorophenyl)-5-fluoro-N4-(2,2,6,6-tetramethylpiperidin-4-yl)pyrimidine-2,4-diamine] | > 1
9 | Cc1nnnn1-c1cc(Nc2ncc(F)c(NC3CC(C)(C)N(C)C(C)(C)C3)n2)ccc1F [Compound I-9, 5-fluoro-N2-(4-fluoro-3-(5-methyl-1H-tetrazol-1-yl)phenyl)-N4-(1,2,2,6,6-pentamethylpiperidin-4-yl)pyrimidine-2,4-diamine] | < 0.25
10 | Cc1nnnn1-c1cc(Nc2ncc(F)c(NC3CC(C)(C)NC(C)(C)C3)n2)ccc1F [Compound I-10, 5-fluoro-N2-(4-fluoro-3-(5-methyl-1H-tetrazol-1-yl)phenyl)-N4-(2,2,6,6-tetramethylpiperidin-4-yl)pyrimidine-2,4-diamine] | 0.25 to 0.5
11 | Cc1nnnn1-c1cc(Nc2ncc(F)c(NC3CC(C)(C)N(CC4CC4)C(C)(C)C3)n2)ccc1F [Compound I-11, N4-(1-(cyclopropylmethyl)-2,2,6,6-tetramethylpiperidin-4-yl)-5-fluoro-N2-(4-fluoro-3-(5-methyl-1H-tetrazol-1-yl)phenyl)pyrimidine-2,4-diamine] | > 1
12 | CN1C(C)(C)CC(Nc2nc(Nc3cccc(-n4cncn4)c3)ncc2F)CC1(C)C [Compound I-12, N2-(3-(1H-1,2,4-triazol-1-yl)phenyl)-5-fluoro-N4-(1,2,2,6,6-pentamethylpiperidin-4-yl)pyrimidine-2,4-diamine] | 0.5 to 1
13 | CCOc1ccc(Nc2ncc(F)c(NC3CC(C)(C)N(C)C(C)(C)C3)n2)cc1-n1c(C)ccc1C [Compound I-13, N2-(4-ethoxy-3-(2,5-dimethyl-1H-pyrrol-1-yl)phenyl)-5-fluoro-N4-(1,2,2,6,6-pentamethylpiperidin-4-yl)pyrimidine-2,4-diamine] | > 1
14 | CCOc1ccc(Nc2ncc(F)c(NC3CC(C)(C)NC(C)(C)C3)n2)cc1-n1c(C)ccc1C [Compound I-14, N2-(4-ethoxy-3-(2,5-dimethyl-1H-pyrrol-1-yl)phenyl)-5-fluoro-N4-(2,2,6,6-tetramethylpiperidin-4-yl)pyrimidine-2,4-diamine] | 0.5 to 1
15 | Cc1ccc(C)n1-c1cc(Nc2ncc(F)c(NC3CC(C)(C)N(C)C(C)(C)C3)n2)ccc1OC(C)C [Compound I-15, N2-(4-isopropyloxy-3-(2,5-dimethyl-1H-pyrrol-1-yl)phenyl)-5-fluoro-N4-(1,2,2,6,6-pentamethylpiperidin-4-yl)pyrimidine-2,4-diamine] | 0.5 to 1
16 | Cc1ccc(C)n1-c1cc(Nc2ncc(F)c(NC3CC(C)(C)NC(C)(C)C3)n2)ccc1OC(C)C [Compound I-16, N2-(4-isopropyloxy-3-(2,5-dimethyl-1H-pyrrol-1-yl)phenyl)-5-fluoro-N4-(2,2,6,6-tetramethylpiperidin-4-yl)pyrimidine-2,4-diamine] | > 1
17 | CC1(C)CC(Nc2nc(Nc3cc(F)cc(OCCn4ccnn4)c3)ncc2C#N)CC(C)(C)N1 [Compound I-17, 4-(2,2,6,6-tetramethylpiperidin-4-ylamino)-2-(3-(2-(1H-1,2,3-triazol-1-yl)ethoxy)-5-fluorophenylamino)pyrimidine-5-carbonitrile] | > 1
18 | Cc1nnnn1-c1cc(Nc2ncc(C#N)c(NC3CC(C)(C)NC(C)(C)C3)n2)ccc1F [Compound I-18, 4-(2,2,6,6-tetramethylpiperidin-4-ylamino)-2-(4-fluoro-3-(5-methyl-1H-tetrazol-1-yl)phenylamino)pyrimidine-5-carbonitrile] | 0.25 to 0.5
19 | CC1(C)CC(Nc2nc(Nc3cccc(-n4cncn4)c3)ncc2F)CC(C)(C)N1 [Compound I-19, N2-(3-(1H-1,2,4-triazol-1-yl)phenyl)-5-fluoro-N4-(2,2,6,6-tetramethylpiperidin-4-yl)pyrimidine-2,4-diamine] | 0.5 to 1
20 | Cc1nnnn1-c1cc(Nc2ncc(F)c(NC3CC(C)(C)N(C)C(C)(C)C3)n2)ccc1OC(F)(F)F [Compound I-20, 5-fluoro-N2-(3-(5-methyl-1H-tetrazol-1-yl)-4-(trifluoromethoxy)phenyl)-N4-(1,2,2,6,6-pentamethylpiperidin-4-yl)pyrimidine-2,4-diamine] | < 0.25
21 | Cc1nnnn1-c1cc(Nc2ncc(F)c(NC3CC(C)(C)NC(C)(C)C3)n2)ccc1OC(F)(F)F [Compound I-21, 5-fluoro-N2-(3-(5-methyl-1H-tetrazol-1-yl)-4-(trifluoromethoxy)phenyl)-N4-(2,2,6,6-tetramethylpiperidin-4-yl)pyrimidine-2,4-diamine] | < 0.25
22 | CN1C(C)(C)CC(Nc2nc(Nc3cccc(-n4cccn4)c3)ncc2F)CC1(C)C [Compound I-22, N2-(3-(1H-pyrazol-1-yl)phenyl)-5-fluoro-N4-(1,2,2,6,6-pentamethylpiperidin-4-yl)pyrimidine-2,4-diamine] | 0.5 to 1
23 | CC1(C)CC(Nc2nc(Nc3cccc(-n4cccn4)c3)ncc2F)CC(C)(C)N1 [Compound I-23, N2-(3-(1H-pyrazol-1-yl)phenyl)-5-fluoro-N4-(2,2,6,6-tetramethylpiperidin-4-yl)pyrimidine-2,4-diamine] | > 1
